Measurements reported in US11358957B2, “Microbiocidal oxadiazole derivatives” (SYNGENTA PARTICIPATIONS AG, priority 2017, dated 2022).

Legend:
Phakopsora pachyrhizi = assay: Fungicidal activity against Phakopsora pachyrhizi / soybean / leaf disc preventative (Asian soybean rust); type: in vivo; details: foliar, 200 ppm in the applied formulation, soybean leaf disks, compared to untreated, read-out: disease control
Experimental: Leaf disks or leaf segments of various plant species are cut from plants grown in a greenhouse. The cut leaf disks or segments are placed in multiwell plates (24-well format) onto water agar. The leaf disks are sprayed with a test solution before (preventative) or after (curative) inoculation. Compounds to be tested are prepared as DMSO solutions (max. 10 mg/mL) which are diluted to the appropriate concentration with 0.025% Tween20 just before spraying. The inoculated leaf disks or segments are incubated under defined conditions (temperature, relative humidity, light, etc.) according to the respective test system. A single evaluation of disease level is carried out 3 to 14 days after inoculation, depending on the pathosystem. Percent disease control relative to the untreated check leaf disks or segments is then calculated. Soybean leaf disks are placed on water agar in multiwell plates (24-well format) and sprayed with the formulated test compound diluted in water. One day after application leaf discs are inoculated by spraying a spore suspension on the lower leaf surface. After an incubation period in a climate cabinet of 24-36 hours in darkness at 20° C. and 75% rh leaf disc are kept at 20° C. with 12 h light/day and 75% rh. The activity of a compound is assessed as percent disease control compared to untreated when an appropriate level of disease damage appears in untreated check leaf disks (12 to 14 days after application). The following compounds at 200 ppm in the applied formulation give at least 80% disease control in this test when compared to untreated control leaf disks under the same conditions, which show extensive disease development.

[1] = test system: Glomerella lagenarium (Colletotrichum lagenarium); assay: Fungicidal activity against Glomerella lagenarium (Colletotrichum lagenarium) liquid culture / cucumber / preventative (anthracnose); type: cell-based; details: Colletotrichum orbiculare; 20 ppm in the applied formulation; liquid culture (PDB), inhibition of growth measured photometrically 3 to 4 days after application; compared to untreated; read-out: disease control
Method in brief: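 Conidia from cryogenic storage mixed into potato dextrose broth and added to compound in DMSO in microtiter plates. Incubated at 24° C.; growth inhibition read photometrically 3 to 4 days after application. Disease control expressed relative to untreated control, with compound at 20 ppm in the applied formulation.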

[2] = test system: Puccinia recondita f. Sp. Tritici; assay: Fungicidal activity against Puccinia recondita f. sp. tritici / wheat / leaf disc preventative (brown rust); type: in vivo; details: foliar, 200 ppm in the applied formulation, wheat leaf segments cv. Kanzler, preventative (inoculated 1 day after application), compared to untreated, read-out: disease control
Method in brief: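 Segments of wheat cv. Kanzler on water agar were sprayed with compound and inoculated with spores 1 day later. They were kept at 19 °C, 75% rh and 12 h light/12 h dark. Percent disease control versus untreated was scored 7–9 days after application; compounds were tested at 200 ppm.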

[3] = test system: Puccinia recondita f. Sp. Tritici; assay: Fungicidal activity against Puccinia recondita f. sp. tritici / wheat / leaf disc curative (brown rust); type: in vivo; details: foliar, 24 h, 200 ppm in the applied formulation, wheat leaf segments cv. Kanzler, curative (applied 1 day after inoculation), compared to untreated, read-out: disease control
Method in brief: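 Wheat leaf segments (cv. Kanzler) on agar were inoculated with brown rust spores, kept dark at 19 °C and 75% RH, then sprayed 1 day later with compound (DMSO stock diluted in 0.025% Tween20). Under 12 h light/12 h dark at 19 °C, percent disease control versus untreated was scored 6–8 days after application; 200 ppm applied.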

Row | melting point | SMILES | pest or weed control at 200 ppm (Phakopsora pachyrhizi) | inhibition of growth at 20 ppm [1] | pest or weed control at 200 ppm [2] | pest or weed control at 200 ppm [3]
1 | 88 to 94 °C | CCCOC(=O)c1ccn(Cc2ccc(-c3noc(C(F)(F)F)n3)s2)n1 [Compound 1.46, propyl 1-[[5-[5-(trifluoromethyl)-1,2,4-oxadiazol-3-yl]-2-thienyl]methyl]pyrazole-3-carboxylate] | ≥ 80% | ≥ 80% | ≥ 80% | ≥ 80%
2 | 134 to 141 °C | CONC(=O)c1ccn(Cc2ccc(-c3noc(C(F)(F)F)n3)s2)n1 [Compound 1.56, N-methoxy-1-[[5-[5-(trifluoromethyl)-1,2,4-oxadiazol-3-yl]-2-thienyl]methyl]pyrazole-3-carboxamide] | ≥ 80% | ≥ 80% | ≥ 80% | ≥ 80%
3 | 90 to 96 °C | CN(C)C(=O)c1ccn(Cc2ccc(-c3noc(C(F)(F)F)n3)s2)n1 [Compound 1.57, N,N-dimethyl-1-[[5-[5-(trifluoromethyl)-1,2,4-oxadiazol-3-yl]-2-thienyl]methyl]pyrazole-3-carboxamide] | ≥ 80% | ≥ 80% | ≥ 80% | ≥ 80%
4 | 168 to 178 °C | CONC(=O)c1ncn(Cc2ccc(-c3noc(C(F)(F)F)n3)s2)n1 [Compound 1.59, N-methoxy-1-[[5-[5-(trifluoromethyl)-1,2,4-oxadiazol-3-yl]-2-thienyl]methyl]-1,2,4-triazole-3-carboxamide] | ≥ 80% | ≥ 80% | ≥ 80% | ≥ 80%

The remaining lines, values behind:

Row | SMILES | melting point | pest or weed control at 200 ppm (Phakopsora pachyrhizi) | inhibition of growth at 20 ppm [1] | pest or weed control at 200 ppm [2] | pest or weed control at 200 ppm [3]
5 | CCCOC(=O)c1ncn(Cc2ccc(-c3noc(C(F)(F)F)n3)s2)n1 [Compound 1.43, propyl 1-[[5-[5-(trifluoromethyl)-1,2,4-oxadiazol-3-yl]-2-thienyl]methyl]-1,2,4-triazole-3-carboxylate] | 140 to 160 °C | ≥ 80% | ≥ 80% | ≥ 80% | ≥ 80%
6 | CNC(=O)c1ncnn1Cc1ccc(-c2noc(C(F)(F)F)n2)s1 [Compound 1.48, N-methyl-2-[[5-[5-(trifluoromethyl)-1,2,4-oxadiazol-3-yl]-2-thienyl]methyl]-1,2,4-triazole-3-carboxamide] | 132 to 140 °C | ≥ 80% | ≥ 80% | ≥ 80% | ≥ 80%
7 | CNC(=O)c1ncn(Cc2ccc(-c3noc(C(F)(F)F)n3)s2)n1 [Compound 1.49, N-methyl-1-[[5-[5-(trifluoromethyl)-1,2,4-oxadiazol-3-yl]-2-thienyl]methyl]-1,2,4-triazole-3-carboxamide] | 198 to 218 °C | ≥ 80% | ≥ 80% | ≥ 80% | ≥ 80%
8 | CNC(=O)c1ccn(Cc2ccc(-c3noc(C(F)(F)F)n3)s2)n1 [Compound 1.51, N-methyl-1-[[5-[5-(trifluoromethyl)-1,2,4-oxadiazol-3-yl]-2-thienyl]methyl]pyrazole-3-carboxamide] | 124 to 126 °C | ≥ 80% | ≥ 80% | ≥ 80% | ≥ 80%
9 | CNC(=O)c1ccnn1Cc1ccc(-c2noc(C(F)(F)F)n2)s1 [Compound 1.52, N-methyl-2-[[5-[5-(trifluoromethyl)-1,2,4-oxadiazol-3-yl]-2-thienyl]methyl]pyrazole-3-carboxamide] | 148 to 151 °C | ≥ 80% | ≥ 80% | ≥ 80% | ≥ 80%
10 | CONC(=O)c1ccnn1Cc1ccc(-c2noc(C(F)(F)F)n2)s1 [Compound 1.60, N-methoxy-2-[[5-[5-(trifluoromethyl)-1,2,4-oxadiazol-3-yl]-2-thienyl]methyl]pyrazole-3-carboxamide] | 105 to 115 °C | ≥ 80% | ≥ 80% | ≥ 80% | ≥ 80%
